Measurements reported in ChEMBL document CHEMBL1133828, “Synthesis, crystal structure determination, and biological properties of the DNA-dependent protein kinase (DNA-PK) inhibitor 3-cyano-6-hydrazonomethyl-5-(4-pyridyl)pyrid-[1H]-2-one (OK-1035)” (Bioorg Med Chem Lett, 2001).

Molecular target: DNA-dependent protein kinase catalytic subunit (Homo sapiens, UniProt P78527)
Assay: Inhibition of DNA-dependent protein kinase (DNA-PK) of HeLa cell nuclear cell extract
Type: cell-free

DNA-dependent protein kinase catalytic subunit, sequence (P78527 whole entry): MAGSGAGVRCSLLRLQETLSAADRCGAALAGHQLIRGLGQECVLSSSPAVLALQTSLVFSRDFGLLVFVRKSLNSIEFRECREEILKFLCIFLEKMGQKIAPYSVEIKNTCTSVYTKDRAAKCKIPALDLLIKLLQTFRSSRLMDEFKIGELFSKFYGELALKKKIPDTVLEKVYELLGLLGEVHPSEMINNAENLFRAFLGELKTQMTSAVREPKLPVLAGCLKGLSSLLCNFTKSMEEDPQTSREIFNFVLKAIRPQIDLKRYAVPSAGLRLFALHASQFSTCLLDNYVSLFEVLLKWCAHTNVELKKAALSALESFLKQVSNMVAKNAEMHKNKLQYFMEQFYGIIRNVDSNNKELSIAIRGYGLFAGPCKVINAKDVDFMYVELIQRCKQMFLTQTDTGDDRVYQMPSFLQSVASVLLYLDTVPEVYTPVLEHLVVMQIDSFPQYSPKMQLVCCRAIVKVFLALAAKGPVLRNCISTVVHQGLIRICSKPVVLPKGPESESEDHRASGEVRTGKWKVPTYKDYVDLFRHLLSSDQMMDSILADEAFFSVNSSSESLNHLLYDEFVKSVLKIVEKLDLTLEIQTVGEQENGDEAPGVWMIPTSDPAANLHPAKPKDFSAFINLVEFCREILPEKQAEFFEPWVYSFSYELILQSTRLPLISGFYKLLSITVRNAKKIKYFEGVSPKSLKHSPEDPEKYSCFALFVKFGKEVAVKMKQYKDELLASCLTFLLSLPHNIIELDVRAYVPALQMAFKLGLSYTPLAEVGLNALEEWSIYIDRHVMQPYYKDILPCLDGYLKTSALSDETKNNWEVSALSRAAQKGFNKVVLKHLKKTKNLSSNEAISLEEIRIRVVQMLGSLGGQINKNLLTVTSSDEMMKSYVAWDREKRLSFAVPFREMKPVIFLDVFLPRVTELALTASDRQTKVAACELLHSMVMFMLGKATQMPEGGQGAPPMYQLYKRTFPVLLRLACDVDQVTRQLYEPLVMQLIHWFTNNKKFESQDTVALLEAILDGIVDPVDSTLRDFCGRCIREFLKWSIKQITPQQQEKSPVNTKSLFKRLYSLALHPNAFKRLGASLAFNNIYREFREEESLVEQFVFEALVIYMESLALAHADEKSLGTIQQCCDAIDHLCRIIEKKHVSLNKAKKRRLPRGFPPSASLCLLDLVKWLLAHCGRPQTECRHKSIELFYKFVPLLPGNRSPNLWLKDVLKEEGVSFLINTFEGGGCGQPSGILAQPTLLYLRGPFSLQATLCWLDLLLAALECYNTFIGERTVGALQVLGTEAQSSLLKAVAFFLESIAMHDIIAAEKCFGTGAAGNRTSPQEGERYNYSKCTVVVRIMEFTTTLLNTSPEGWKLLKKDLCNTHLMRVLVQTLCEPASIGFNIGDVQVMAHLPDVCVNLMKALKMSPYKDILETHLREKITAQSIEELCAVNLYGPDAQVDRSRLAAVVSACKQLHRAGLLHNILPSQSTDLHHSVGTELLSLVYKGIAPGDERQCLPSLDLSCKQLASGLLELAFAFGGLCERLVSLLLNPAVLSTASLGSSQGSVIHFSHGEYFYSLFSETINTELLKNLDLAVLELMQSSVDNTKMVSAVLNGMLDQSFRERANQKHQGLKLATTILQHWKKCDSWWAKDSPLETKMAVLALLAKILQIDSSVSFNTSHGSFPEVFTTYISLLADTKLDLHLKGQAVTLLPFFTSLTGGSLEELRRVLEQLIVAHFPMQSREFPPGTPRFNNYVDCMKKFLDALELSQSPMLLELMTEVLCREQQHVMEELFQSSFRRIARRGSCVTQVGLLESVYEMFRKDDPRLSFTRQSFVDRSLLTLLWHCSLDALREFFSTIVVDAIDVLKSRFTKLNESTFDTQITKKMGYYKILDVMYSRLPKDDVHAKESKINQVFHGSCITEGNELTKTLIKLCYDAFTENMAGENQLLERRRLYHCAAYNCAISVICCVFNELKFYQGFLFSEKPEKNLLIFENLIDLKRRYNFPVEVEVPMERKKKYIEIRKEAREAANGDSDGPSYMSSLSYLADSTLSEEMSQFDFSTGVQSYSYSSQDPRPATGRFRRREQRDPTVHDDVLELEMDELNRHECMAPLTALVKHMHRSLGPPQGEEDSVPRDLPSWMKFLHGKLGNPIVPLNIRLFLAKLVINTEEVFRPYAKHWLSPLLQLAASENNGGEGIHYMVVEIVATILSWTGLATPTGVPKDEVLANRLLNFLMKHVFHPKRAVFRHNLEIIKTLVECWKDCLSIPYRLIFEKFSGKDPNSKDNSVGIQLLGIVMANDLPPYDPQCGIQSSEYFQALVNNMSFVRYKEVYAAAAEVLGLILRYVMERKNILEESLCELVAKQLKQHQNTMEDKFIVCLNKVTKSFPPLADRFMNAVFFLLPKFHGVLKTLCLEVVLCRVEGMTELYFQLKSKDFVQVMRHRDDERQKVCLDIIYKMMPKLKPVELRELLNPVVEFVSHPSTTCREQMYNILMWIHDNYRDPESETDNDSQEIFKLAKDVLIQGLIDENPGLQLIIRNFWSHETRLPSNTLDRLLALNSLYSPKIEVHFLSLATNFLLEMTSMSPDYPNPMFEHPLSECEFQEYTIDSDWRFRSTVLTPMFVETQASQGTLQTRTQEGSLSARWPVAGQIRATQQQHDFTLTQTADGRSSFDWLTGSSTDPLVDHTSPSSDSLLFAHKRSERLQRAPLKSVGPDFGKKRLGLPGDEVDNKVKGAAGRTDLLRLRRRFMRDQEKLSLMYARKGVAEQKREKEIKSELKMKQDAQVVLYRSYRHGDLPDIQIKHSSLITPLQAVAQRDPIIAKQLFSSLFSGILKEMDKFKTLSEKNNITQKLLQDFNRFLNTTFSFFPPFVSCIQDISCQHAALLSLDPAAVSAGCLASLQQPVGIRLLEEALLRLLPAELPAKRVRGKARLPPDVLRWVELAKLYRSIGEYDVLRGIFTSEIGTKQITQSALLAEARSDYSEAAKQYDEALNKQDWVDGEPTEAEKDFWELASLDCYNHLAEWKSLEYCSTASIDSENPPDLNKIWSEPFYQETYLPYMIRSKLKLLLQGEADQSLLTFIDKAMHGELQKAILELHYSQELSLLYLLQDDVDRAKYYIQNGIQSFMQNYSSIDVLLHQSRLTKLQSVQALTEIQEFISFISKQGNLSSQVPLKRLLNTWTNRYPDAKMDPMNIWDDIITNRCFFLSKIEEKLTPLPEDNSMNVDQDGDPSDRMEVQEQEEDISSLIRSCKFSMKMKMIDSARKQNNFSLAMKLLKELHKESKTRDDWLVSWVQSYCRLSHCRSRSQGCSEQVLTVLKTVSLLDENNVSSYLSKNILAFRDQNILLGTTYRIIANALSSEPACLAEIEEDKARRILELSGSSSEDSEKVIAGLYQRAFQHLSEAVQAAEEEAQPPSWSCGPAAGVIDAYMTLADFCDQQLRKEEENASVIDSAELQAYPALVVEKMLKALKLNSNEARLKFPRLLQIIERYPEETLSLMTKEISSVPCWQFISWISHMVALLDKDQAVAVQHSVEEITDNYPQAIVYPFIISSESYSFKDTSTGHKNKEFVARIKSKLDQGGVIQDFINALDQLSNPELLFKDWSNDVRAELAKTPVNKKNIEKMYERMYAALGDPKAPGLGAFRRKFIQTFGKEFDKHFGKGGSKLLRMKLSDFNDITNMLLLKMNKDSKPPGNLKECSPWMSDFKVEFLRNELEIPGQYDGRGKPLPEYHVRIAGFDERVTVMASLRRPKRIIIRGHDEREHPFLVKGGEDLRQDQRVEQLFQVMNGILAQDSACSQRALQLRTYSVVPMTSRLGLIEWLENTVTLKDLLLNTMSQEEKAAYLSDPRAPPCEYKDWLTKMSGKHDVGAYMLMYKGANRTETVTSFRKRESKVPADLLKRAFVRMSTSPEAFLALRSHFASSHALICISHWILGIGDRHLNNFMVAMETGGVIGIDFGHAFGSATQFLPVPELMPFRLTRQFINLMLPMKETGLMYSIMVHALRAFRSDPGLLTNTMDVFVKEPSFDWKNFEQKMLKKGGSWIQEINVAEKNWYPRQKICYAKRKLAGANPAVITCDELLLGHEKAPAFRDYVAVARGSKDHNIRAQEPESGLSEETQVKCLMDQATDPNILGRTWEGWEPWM

Row | IC50 [µM] | Structure (SMILES)
1 | > 500 | N#Cc1cc(-c2ccncc2)c(CO)nc1O
2 | 1.4 | O=c1cc(N2CCOCC2)oc2c(-c3ccccc3)cccc12 [LY-294002]
3 | > 500 | COc1ccc(COCc2nc(O)c(C#N)cc2-c2ccncc2)cc1
4 | 100 | N#Cc1cc(-c2ccncc2)c(/C=N/N)nc1O
